Test results reported in patent publication US10913745B2, “Octahydro-pyrrolo[3,4-c]-pyrrole derivatives and analogs thereof as autotaxin inhibitors” (Hoffmann-La Roche Inc., priority 2013, dated 2021).

Each compound was assayed against ATX (human His-tagged) (Homo sapiens (Human), UniProt Q13822) (assay: Human ATX enzyme inhibition assay (fluorescence quenching, MR121 substrate)). Conditions: MR121 substrate 1 μM, ATX 30 nM final, 30° C.
Type: biochemical
Protocol: Human ATX Enzyme Inhibition Assay
ATX inhibition was measured by a fluorescence quenching assay using a specifically labeled substrate analogue (MR121 substrate). To obtain this MR121 substrate, BOC and TBS protected 6-amino-hexanoic acid (R)-3-({2-[3-(2-{2-[2-(2-amino-ethoxy)-ethoxy]-ethoxy}-ethoxy)-propionylamino]-ethoxy}-hydroxy-phosphoryloxy)-2-hydroxy-propyl ester (Ferguson et al., Org Lett 2006, 8 (10), 2023) was labeled with MR121 fluorophore (CAS 185308-24-1, 1-(3-carboxypropyl)-11-ethyl-1,2,3,4,8,9,10,11-octahydro-dipyrido[3,2-b:2′,3′-i]phenoxazin-13-ium) on the free amine of the ethanolamine side and then, after deprotection, subsequently with tryptophan on the side of the aminohexanoic acid. Assay working solutions were made as follows: Assay buffer (50 mM Tris-HCl, 140 mM NaCl, 5 mM KCl, 1 mM CaCl2, 1 mM MgCl2, 0.01% Triton-X-100, pH 8.0; ATX solution: ATX (human His-tagged) stock solution (1.08 mg/mL in 20 mM bicine, pH 8.5, 0.15 M NaCl, 10% glycerol, 0.3% CHAPS, 0.02% NaN3), diluted to 1.4-2.5× final concentration in assay buffer; MR121 substrate solution: MR121 substrate stock solution (800 μM MR121 substrate in DMSO), diluted to 2-5× final concentration in assay buffer. Test compounds (10 mM stock in DMSO, 8 μL) were obtained in 384 well sample plates (Corning Costar #3655) and diluted with 8 μL DMSO. Row-wise serial dilutions were made by transferring 8 μL cpd solution to the next row up to row O. The compound and control solutions were mixed five times and 2 μL were transferred to 384 well assay plates (Corning Costar #3702). Then, 15 μL of 41.7 nM ATX solution was added (30 nM final concentration), mixed five times and then incubated for 15 minutes at 30° C. 10 μL of MR121 substrate solution was added (1 μM final concentration), mixed 30 times and then incubated for 15 minutes at 30° C.

IC50 [nM]	SMILES
7	NS(=O)(=O)c1ccc(C(=O)N2C[C@H]3CCN(C(=O)OCc4cc(Cl)cc(Cl)c4)C[C@@H]3C2)cc1 (racemic) [Example 1.03, trans-3,5-dichlorobenzyl 2-(4-sulfamoylbenzoyl)hexahydro-1H-pyrrolo[3,4-c]pyridine-5(6H)-carboxylate]
4	NS(=O)(=O)c1ccc(C(=O)N2C[C@H]3CCN(C(=O)OCc4cc(Cl)cc(Cl)c4)C[C@@H]3C2)cc1 (single isomer, unassigned) [Example 9A, (−)-trans-3,5-Dichlorobenzyl 2-(4-sulfamoylbenzoyl)hexahydro-1H-pyrrolo[3,4-c]pyridine-5(6H)-carboxylate]
5	NS(=O)(=O)c1ccc(C(=O)N2C[C@H]3CCN(C(=O)OCc4cc(Cl)cc(Cl)c4)C[C@@H]3C2)cc1 (single isomer, unassigned) [Example 9B, (+)-trans-3,5-dichlorobenzyl 2-(4-sulfamoylbenzoyl)hexahydro-1H-pyrrolo[3,4-c]pyridine-5(6H)-carboxylate]
1160	CNS(=O)(=O)c1ccc(C(=O)N2C[C@H]3CN(C(=O)OCc4cc(Cl)cc(Cl)c4)C[C@H]3C2)cc1 [Example 1, (3aR,6aS)-3,5-Dichlorobenzyl 5-(4-(N-methylsulfamoyl)benzoyl)hexahydropyrrolo[3,4-c]pyrrole-2(1H)-carboxylate]
293	O=C(OCc1cc(Cl)cc(Cl)c1)N1C[C@@H]2CN(C(=O)c3ccc(O)cn3)C[C@@H]2C1 [Example 1.01, (3aR,6aS)-3,5-dichlorobenzyl 5-(5-hydroxypicolinoyl)hexahydropyrrolo[3,4-c]pyrrole-2(1H)-carboxylate]
444	O=C(OCc1cc(Cl)cc(Cl)c1)N1C[C@@H]2CN(C(=O)c3ccc(O)cc3)C[C@@H]2C1 [Example 1.02, (3aR,6aS)-3,5-dichlorobenzyl 5-(4-hydroxybenzoyl)hexahydropyrrolo[3,4-c]pyrrole-2(1H)-carboxylate]
8	NS(=O)(=O)c1ccc(C(=O)N2C[C@H]3CN(C(=O)OCc4cc(Cl)cc(Cl)c4)C[C@H]3C2)s1 [Example 1.04, (3aR,6aS)-3,5-dichlorobenzyl 5-(5-sulfamoylthiophene-2-carbonyl)hexahydropyrrolo[3,4-c]pyrrole-2(1H)-carboxylate]
4	NS(=O)(=O)c1ccc(C(=O)N2C[C@H]3CN(C(=O)OCc4cc(Cl)cc(Cl)c4)C[C@H]3C2)cc1 [Example 1.05, (3aR,6aS)-3,5-dichlorobenzyl 5-(4-sulfamoylbenzoyl)hexahydropyrrolo[3,4-c]pyrrole-2(1H)-carboxylate]
255	Nc1ccc(C(=O)N2C[C@H]3CN(C(=O)OCc4cc(Cl)cc(Cl)c4)C[C@H]3C2)cc1 [Example 1.06, (3aR,6aS)-3,5-dichlorobenzyl 5-(4-aminobenzoyl)hexahydropyrrolo[3,4-c]pyrrole-2(1H)-carboxylate]
6110	Nc1ccc(C(=O)N2C[C@H]3CN(C(=O)OCc4cc(Cl)cc(Cl)c4)C[C@H]3C2)nc1 [Example 1.07, (3aR,6aS)-3,5-dichlorobenzyl 5-(5-aminopicolinoyl)hexahydropyrrolo[3,4-c]pyrrole-2(1H)-carboxylate]
1200	N#Cc1ccc(C(=O)N2C[C@H]3CN(C(=O)OCc4cc(Cl)cc(Cl)c4)C[C@H]3C2)cc1 [Example 1.08, (3aR,6aS)-3,5-dichlorobenzyl 5-(4-cyanobenzoyl)hexahydropyrrolo[3,4-c]pyrrole-2(1H)-carboxylate]
118	COC(=O)c1ccc(C(=O)N2C[C@H]3CN(C(=O)OCc4cc(Cl)cc(Cl)c4)C[C@H]3C2)cc1 [Example 1.09, (3aR,6aS)-3,5-dichlorobenzyl 5-(4-(methoxycarbonyl)benzoyl)hexahydropyrrolo[3,4-c]pyrrole-2(1H)-carboxylate]
2	NS(=O)(=O)c1ccc(C(=O)N2C[C@H]3CCN(C(=O)/C=C/c4ccc(OC(F)(F)F)cc4)CC[C@H]3C2)cc1 [Example 1.10, 4-{(3aS,8aR)-6-[(E)-3-(4-trifluoromethoxy-phenyl)-acryloyl]-octahydro-pyrrolo[3,4-d]azepine-2-carbonyl}-benzenesulfonamide]
1	NS(=O)(=O)c1ccc(C(=O)N2C[C@H]3CN(C(=O)OCc4ccc(OC(F)(F)F)cc4)C[C@@H]3C2)cc1F [Example 1.11, (3aS,6aS)-5-(3-fluoro-4-sulfamoyl-benzoyl)-hexahydro-pyrrolo[3,4-c]pyrrole-2-carboxylic acid 4-trifluoromethoxy-benzyl ester]
440	O=C(OCc1ccc(OC(F)(F)F)cc1)N1C[C@@H]2CN(C(=O)c3ccc(=O)[nH]c3)C[C@H]2C1 [Example 1.12, (3aS,6aS)-5-(6-oxo-1,6-dihydro-pyridine-3-carbonyl)-hexahydro-pyrrolo[3,4-c]pyrrole-2-carboxylic acid 4-trifluoromethoxy-benzyl ester]
1	NS(=O)(=O)c1ccc(C(=O)N2C[C@H]3CN(C(=O)OCc4ccc(OC(F)(F)F)cc4)C[C@@H]3C2)nc1 [Example 1.13, (3aS,6aS)-5-(5-sulfamoyl-pyridine-2-carbonyl)-hexahydro-pyrrolo[3,4-c]pyrrole-2-carboxylic acid 4-trifluoromethoxy-benzyl ester]
64	Cn1cc(S(N)(=O)=O)cc1C(=O)N1C[C@H]2CN(C(=O)OCc3ccc(OC(F)(F)F)cc3)C[C@@H]2C1 [Example 1.14, (3 aS,6aS)-5-(1-methyl-4-sulfamoyl-1H-pyrrole-2-carbonyl)-hexahydro-pyrrolo[3,4-c]pyrrole-2-carboxylic acid 4-trifluoromethoxy-benzyl ester]
58.5	Cn1c(C(=O)N2C[C@H]3CN(C(=O)OCc4ccc(OC(F)(F)F)cc4)C[C@@H]3C2)ccc1S(N)(=O)=O [Example 1.15, (3 aS,6aS)-5-(1-methyl-5-sulfamoyl-1H-pyrrole-2-carbonyl)-hexahydro-pyrrolo[3,4-c]pyrrole-2-carboxylic acid 4-trifluoromethoxy-benzyl ester]
25	O=C(OCc1ccc(OC(F)(F)F)cc1)N1C[C@@H]2CN(C(=O)c3ccc(O)cn3)C[C@H]2C1 [Example 1.17, (3aS,6aS)-5-(5-hydroxy-pyridine-2-carbonyl)-hexahydro-pyrrolo[3,4-c]pyrrole-2-carboxylic acid 4-trifluoromethoxy benzyl ester]
13	O=C(OCc1ccc(OC(F)(F)F)cc1)N1C[C@@H]2CN(C(=O)c3ccc(O)cc3)C[C@H]2C1 [Example 1.18, (3aS,6aS)-5-(4-hydroxy-benzoyl)-hexahydro-pyrrolo[3,4-c]pyrrole-2-carboxylic acid 4-trifluoromethoxy-benzyl ester]
4	NS(=O)(=O)c1ccc(C(=O)N2C[C@H]3CN(C(=O)OCc4ccc(OC(F)(F)F)cc4)C[C@@H]3C2)c(F)c1 [Example 1.19, (3 aS,6aS)-5-(2-fluoro-4-sulfamoyl-benzoyl)-hexahydro-pyrrolo[3,4-c]pyrrole-2-carboxylic acid 4-trifluoromethoxy-benzyl ester]
